Our source for the EC50 values is US8871756B2 (Hoffmann-La Roche Inc., priority 2011, dated 2014).

One assay concerns RSV Long strain. Put plainly: Viral cytopathic effect (CPE) assay, anti-RSV activity. The conditions noted are these: RSV Long strain (ATCC); cell viability after 6 days, Cell Counting kit-8. The format is cell-based, Respiratory Syncytial Virus. The method in brief:
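EC50 was derived from CCK-8 viability at 450/630 nm measured 6 days post-infection. Infection used enough RSV Long strain for approximately 80–90% cytopathic effect, in the presence of half-log serially diluted compound. Cells were plated the day before at 6×10^3 per well in DMEM/10% FBS.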
By EC50 is commonly meant the midpoint of the concentration-response curve. High values mean a need for much substance, low ones an effect from little substance. Consider `Cc1ccc2nc(N3CC[S+]([O-])c4ccccc4C3)nc(NCC3(CN)COC3)c2c1` (single isomer, unassigned; (-)) [Example 62-2], for which a half-maximal response (EC50) required 0.0017 µM.

Staying with this assay, now noted: human respiratory syncytial virus, 144 h, RSV Long strain (ATCC); cell viability after 6 days, Cell Counting kit-8.
Regarding `Cc1ccc2nc(N3CCS(=O)(=O)c4ccccc4C3)cc(OCCN)c2c1` [Example 97, 2-{[2-(1,1-Dioxido-2,3-dihydro-1,4-benzothiazepin-4(5H)-yl)-6-methylquinolin-4-yl]oxy}ethanamine], a half-maximal response (EC50) required 0.177 µM.
Still for that read-out and setting: as for `Cc1ccc2nc(N3CCS(=O)(=O)c4ccccc4C3)cc(N3C[C@@H](N)[C@H](F)C3)c2c1` (relative stereo) [Example 78-2, trans-1-[2-(1,1-Dioxido-2,3-dihydro-1,4-benzothiazepin-4(5H)-yl)-6-methylquinolin-4-yl]-4-fluoropyrrolidin-3-amine], the figure is 0.25 µM; as for `Cc1ccc2nc(N3CCS(=O)(=O)c4ccccc4C3)cc(NCC3COC3)c2c1` [Example 3-53, 2-(1,1-Dioxido-2,3-dihydro-1,4-benzothiazepin-4(5H)-yl)-6-methyl-N-(oxetan-3-ylmethyl)quinolin-4-amine], 0.261 µM.
As to `NCCCNc1cc(N2CCS(=O)(=O)c3ccccc3C2)nc2cc(Cl)ccc12` [Example 9-11, N-[7-Chloro-2-(1,1-dioxido-2,3-dihydro-1,4-benzothiazepin-4(5H)-yl)quinolin-4-yl]propane-1,3-diamine], the concentration giving a half-maximal response (EC50) amounted to 0.953 µM.
Consider `Cc1ccc2c(c1)S(=O)(=O)CCN(c1cc(NCC3(N)COC3)c3cc(C)ccc3n1)C2` [Example 2-5, N-[(3-Aminooxetan-3-yl)methyl]-6-methyl-2-(8-methyl-1,1-dioxido-2,3-dihydro-1,4-benzothiazepin-4(5H)-yl)quinolin-4-amine], for which the EC50 stood at 0.006 µM.
The same measure, in the same setting: for `NCC1(CNc2cc(N3CCS(=O)(=O)c4ccccc4C3)nc3ccccc23)COC1` [Example 3-52, N-{[3-(Aminomethyl)oxetan-3-yl]methyl}-2-(1,1-dioxido-2,3-dihydro-1,4-benzothiazepin-4(5H)-yl)quinolin-4-amine] the value was 0.005 µM.
On the same count and under the same terms, for `Cc1ccc2nc(N3CCSc4ccccc4C3)nc(N)c2c1` [Example 58, 2-(2,3-Dihydro-1,4-benzothiazepin-4(5H)-yl)-6-methylquinazolin-4-amine] the value was 2.77 µM.
Compound `Cc1ccc2nc(N3CC[S+]([O-])c4ccccc4C3)cc(NCC(F)(F)CN)c2c1` (stereo not drawn) [Example 18-5, N-[2-(1-Oxido-2,3-dihydro-1,4-benzothiazepin-4(5H)-yl)-6-methylquinolin-4-yl]-2,2-difluoropropane-1,3-diamine] had an EC50 of 0.057 µM.
Same read-out and setting: as for `Cc1ccc2nc(N3CCS(=O)(=O)c4ccccc4C3)cc(NC(CN)(CO)CO)c2c1` [Example 72, 2-(Aminomethyl)-2-{[2-(1,1-dioxido-2,3-dihydro-1,4-benzothiazepin-4(5H)-yl)-6-methylquinolin-4-yl]amino}propane-1,3-diol], the figure is 0.002 µM.
`Cc1ccc2nc(N3CCS(=O)(=O)c4ccccc4C3)cc(NC(CO)CO)c2c1` [Example 11-1, 2-{[2-(1,1-Dioxido-2,3-dihydro-1,4-benzothiazepin-4(5H)-yl)-6-methylquinolin-4-yl]amino}propane-1,3-diol] showed an EC50 of 0.069 µM. This EC50 is about 34-fold higher than that of the compound before.
Still for that read-out and setting: as for `Cc1ccc2nc(N3CCS(=O)(=O)c4ccccc4C3)cc(N3CCC(N)C3)c2c1` (stereo not drawn) [Example 25, 1-[2-(1,1-Dioxido-2,3-dihydro-1,4-benzothiazepin-4(5H)-yl)-6-methylquinolin-4-yl]pyrrolidin-3-amine], the figure is 0.002 µM; as for `NCC1(CNc2nc(N3CC[S+]([O-])c4ccccc4C3)nc3ccc(CO)cc23)COC1` (stereo not drawn) [Example 109-1, [4-({[3-(Aminomethyl)oxetan-3-yl]methyl}amino)-2-(1-oxido-2,3-dihydro-1,4-benzothiazepin-4(5H)-yl)quinazolin-6-yl]methanol], 0.00088 µM; as for `Cc1ccc2nc(N3CC[S+]([O-])c4ccccc4C3)cc(N3CCC(N)C3)c2c1` (stereo not drawn) [Example 19-4, 1-[6-Methyl-2-(1-oxido-2,3-dihydro-1,4-benzothiazepin-4(5H)-yl)quinolin-4-yl]pyrrolidin-3-amine], 0.02 µM.
On the same count and under the same terms, as for `Cc1ccc2nc(N3CCS(=O)(=O)c4ccccc4C3)cc(CCCN)c2c1` [Example 96, 3-[2-(1,1-Dioxido-2,3-dihydro-1,4-benzothiazepin-4(5H)-yl)-6-methylquinolin-4-yl]propan-1-amine], the figure is 2.83 µM; as for `Cc1ccc2nc(N3CCS(=O)(=O)c4ccccc4C3)cc(NC(=O)c3cnccn3)c2c1` [Example 47-8, N-[2-(1,1-Dioxido-2,3-dihydro-1,4-benzothiazepin-4(5H)-yl)-6-methylquinolin-4-yl]pyrazine-2-carboxamide], 0.432 µM; as for `COc1ccc2c(c1)CN(c1cc(NCC3(CNC(C)=O)COC3)c3cc(C)ccc3n1)CCS2(=O)=O` [Example 3-6, N-{[3-({[2-(7-Methoxy-1,1-dioxido-2,3-dihydro-1,4-benzothiazepin-4(5H)-yl)-6-methylquinolin-4-yl]amino}methyl)oxetan-3-yl]methyl}acetamide], 0.058 µM.
The same measure, in the same setting: as for `Cc1ccc2nc(N3CCS(=O)(=O)c4ccccc4C3)cc(NC(=O)N(C)C)c2c1` [Example 3-63, 3-[2-(1,1-Dioxido-2,3-dihydro-1,4-benzothiazepin-4(5H)-yl)-6-methylquinolin-4-yl]-1,1-dimethylurea], the figure is 9.9 µM; as for `COc1ccc2c(c1)CCCN(c1cc(NCCN)c3ccccc3n1)C2` [Example 118-15, N-[2-(7-Methoxy-1,3,4,5-tetrahydro-2H-2-benzazepin-2-yl)quinolin-4-yl]ethane-1,2-diamine], 0.626 µM.
Compound `CCNc1cc(N2CCS(=O)(=O)c3ccccc3C2)nc2ccc(Cl)cc12` [Example 9-30, 6-Chloro-2-(1,1-dioxido-2,3-dihydro-1,4-benzothiazepin-4(5H)-yl)-N-ethylquinolin-4-amine] registered an EC50 of 8.59 µM.
The compound `Cc1ccc2nc(N3CCS(=O)(=O)c4ccccc4C3)cc(N3C[C@@H](O)[C@H](N4CCN(C)CC4)C3)c2c1` [Example 8-6, (3R,4R)-1-[2-(1,1-Dioxido-2,3-dihydro-1,4-benzothiazepin-4(5H)-yl)-6-methylquinolin-4-yl]-4-(4-methylpiperazin-1-yl)pyrrolidin-3-ol] showed an EC50 of 3.77 µM. Compared with the last compound, the EC50 is about 2.3-fold lower.
The same measure, in the same setting: as for `Cc1ccc2nc(N3CCC(F)(F)c4ccccc4C3)cc(NCCO)c2c1` [Example 111-5, 2-{[2-(5,5-Difluoro-1,3,4,5-tetrahydro-2H-2-benzazepin-2-yl)-6-methylquinolin-4-yl]amino}ethanol], the figure is 1.64 µM; as for `Cc1ccc2nc(N3CCS(=O)(=O)c4ccccc4C3)cc(NCC3(N)CCOC3)c2c1` (stereo not drawn) [Example 2-1, N-[(3-Aminotetrahydrofuran-3-yl)methyl]-2-(1,1-dioxido-2,3-dihydro-1,4-benzothiazepin-4(5H)-yl)-6-methylquinolin-4-amine], 0.024 µM; as for `NCC1(CNc2cc(N3CCS(=O)(=O)c4ccccc4C3)nc3ccc(C(=O)O)cc23)COC1` [Example 105, 4-({[3-(Aminomethyl)oxetan-3-yl]methyl}amino)-2-(1,1-dioxido-2,3-dihydro-1,4-benzothiazepin-4(5H)-yl)quinoline-6-carboxylic acid], 1.08 µM.
